Each molecule was assayed against Transient receptor potential cation channel subfamily M member 7 (Mus musculus) (UniProt Q923J1) (assay: Inhibition of Tet-induced Flag-tagged mouse TRPM7 expressed in HEK293 cells assessed as inhibition of channel-mediated cell death in presence of Mg2+ incubated for 24 to 48 hrs by propidium iodide uptake assay). Details: concentration not given here.
Type: cell-based
Set-up: concentration or dose not given beside the values

Chain of Transient receptor potential cation channel subfamily M member 7 (Mus musculus) (Q923J1 whole entry): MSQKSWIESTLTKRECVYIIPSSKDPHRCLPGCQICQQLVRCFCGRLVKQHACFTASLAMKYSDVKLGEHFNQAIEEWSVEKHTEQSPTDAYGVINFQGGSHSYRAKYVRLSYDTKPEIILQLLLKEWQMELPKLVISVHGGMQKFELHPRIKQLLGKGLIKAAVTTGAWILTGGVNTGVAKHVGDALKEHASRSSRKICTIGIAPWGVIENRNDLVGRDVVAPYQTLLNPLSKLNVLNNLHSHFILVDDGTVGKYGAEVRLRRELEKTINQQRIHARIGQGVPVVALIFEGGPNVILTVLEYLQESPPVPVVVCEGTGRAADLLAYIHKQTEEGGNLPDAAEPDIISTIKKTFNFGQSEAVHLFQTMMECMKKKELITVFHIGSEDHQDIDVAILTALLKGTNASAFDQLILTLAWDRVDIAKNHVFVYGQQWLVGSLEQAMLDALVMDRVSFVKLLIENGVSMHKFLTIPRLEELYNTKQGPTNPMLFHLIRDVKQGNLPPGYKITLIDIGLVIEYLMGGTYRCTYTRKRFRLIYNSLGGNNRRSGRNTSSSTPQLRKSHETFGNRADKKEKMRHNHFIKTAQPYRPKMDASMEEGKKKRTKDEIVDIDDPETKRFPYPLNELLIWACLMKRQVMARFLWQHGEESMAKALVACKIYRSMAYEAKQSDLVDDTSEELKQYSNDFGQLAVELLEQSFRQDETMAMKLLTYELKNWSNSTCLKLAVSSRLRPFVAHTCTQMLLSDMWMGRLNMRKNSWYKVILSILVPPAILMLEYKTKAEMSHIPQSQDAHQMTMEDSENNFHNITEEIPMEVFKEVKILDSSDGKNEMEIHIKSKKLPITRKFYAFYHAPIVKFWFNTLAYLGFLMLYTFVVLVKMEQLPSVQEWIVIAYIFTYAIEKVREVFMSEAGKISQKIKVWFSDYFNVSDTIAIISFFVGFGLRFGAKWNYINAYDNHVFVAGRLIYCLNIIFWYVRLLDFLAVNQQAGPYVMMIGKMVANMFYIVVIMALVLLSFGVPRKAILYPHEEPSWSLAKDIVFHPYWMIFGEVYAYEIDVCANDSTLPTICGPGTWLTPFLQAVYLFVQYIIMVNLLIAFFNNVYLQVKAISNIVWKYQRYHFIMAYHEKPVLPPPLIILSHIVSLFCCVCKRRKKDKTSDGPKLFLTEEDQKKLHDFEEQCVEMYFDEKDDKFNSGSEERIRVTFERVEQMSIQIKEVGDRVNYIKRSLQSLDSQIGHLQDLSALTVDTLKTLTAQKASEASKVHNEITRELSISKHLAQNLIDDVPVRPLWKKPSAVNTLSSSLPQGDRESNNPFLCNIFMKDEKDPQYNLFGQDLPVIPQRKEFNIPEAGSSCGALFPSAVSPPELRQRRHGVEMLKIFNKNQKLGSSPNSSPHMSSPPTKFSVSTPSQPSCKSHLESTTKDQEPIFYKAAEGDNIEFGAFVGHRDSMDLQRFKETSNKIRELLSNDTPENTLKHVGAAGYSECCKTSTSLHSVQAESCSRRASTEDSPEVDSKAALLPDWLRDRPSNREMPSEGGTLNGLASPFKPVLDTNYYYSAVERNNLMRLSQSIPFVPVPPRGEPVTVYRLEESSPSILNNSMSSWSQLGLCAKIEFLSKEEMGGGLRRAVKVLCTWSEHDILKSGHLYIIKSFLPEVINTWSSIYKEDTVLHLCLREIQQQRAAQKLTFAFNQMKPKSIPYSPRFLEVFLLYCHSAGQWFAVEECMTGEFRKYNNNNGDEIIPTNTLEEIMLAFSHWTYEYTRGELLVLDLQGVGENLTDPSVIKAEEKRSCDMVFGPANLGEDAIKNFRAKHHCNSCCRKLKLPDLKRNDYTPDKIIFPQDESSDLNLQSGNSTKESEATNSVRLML

| SMILES | inhibition [%] |
| --- | --- |
| Cc1nnsc1C(=O)NCc1csc2ccc(Cl)cc12 | < 30 |
| N#Cc1ccc(NC(=O)Nc2ccc(OCc3ccccc3)cc2)cc1 | 80 |
| Cc1noc(C)c1C(=O)OCc1ccc(-c2ccc(F)cc2F)o1 | 50 |
| COc1ccc(CCNC(=O)c2sc3ccccc3c2Cl)cc1OC | < 30 |
| O=C(O)CNC(=O)c1cccs1 | < 30 |
| Cc1ccc(Cn2nc(C(=O)O/N=C(\N)c3cccc(C(F)(F)F)c3)cc2C)cc1 | < 30 |
| NC(=O)c1sc(-c2ccc(Cl)cc2)cc1NS(=O)(=O)c1ccc(Cl)cc1 | 50 |
| OC1(C(F)(F)F)CC(c2cccs2)=NO1 (stereo unspecified) | 30 |
| Cc1ccc(S(=O)(=O)NCCN2CCN(C(=O)OC(C)(C)C)CC2)cc1 | < 30 |
| COc1ccc(CCN2C(=O)CS/C2=N\c2ccc(C(C)(C)C)cc2)cc1OC | < 30 |
| [O-][S+](c1ccc(Cl)cc1)c1ccc(-c2ccccn2)s1 (stereo unspecified) | < 30 |
| FC(F)(F)c1ccccc1NC(=S)N1CCCN(c2nc3ccc(Cl)cc3s2)CC1 | 60 |
| N#C/C(=N\Nc1cccc(C(F)(F)F)c1)C(=O)c1csc(-c2cccnc2)n1 | 60 |
| Cc1onc(-c2ccccc2Cl)c1C(=O)NNc1cccc(C(F)(F)F)n1 | < 30 |
| O=C(Nc1ccccc1)OCCSCc1ccc2nc(C(F)(F)F)ccc2c1 | 60 |
| O=C(Sc1ccc(C(F)(F)F)cn1)c1ccc(Cl)cc1 | < 30 |
| FC(F)(F)c1cccc(OCc2ccc(-c3ncns3)cc2)c1 | 50 |
| Cc1nc(-c2ccc(S(=O)(=O)Nc3cccc(S(N)(=O)=O)c3)s2)cs1 | < 30 |
| Cc1c(C)c(C)c(CN2CCOC(c3ccccc3)C2C)c(C)c1C (stereo unspecified) | < 30 |
| CC(=O)c1ccc(Nc2cc(C)nc3ccccc23)cc1 | < 30 |
| O=C(Nc1ccc(Cl)cc1)Nc1ccccc1Oc1ccccc1 | 50 |

| SMILES | inhibition [%] |
| --- | --- |
| O=C(/C=C/c1cccs1)NC(=S)Nc1ccccc1Cl | < 30 |
| O=C(NNC(=S)Nc1ccc2c(c1)CCCO2)c1ccco1 | < 30 |
| O=S(=O)(c1cc(Cl)sc1Cl)N1CCN(CCc2ccccc2)CC1 | < 30 |
| COc1ccc(NC(=O)CSc2nnc(C)n2-c2ccc(OCc3ccccc3)cc2)cc1 | 50 |
| C#Cc1cccc(NC(=O)c2c(-c3c(Cl)cccc3Cl)noc2C)c1 | < 30 |
| O=C1NC(=S)S/C1=C/c1ccc(Cl)cc1Cl | 40 |
| O=C(Nc1ccc(Cl)cc1)OCc1noc(-c2cccs2)n1 | 70 |
| CC1(C)CC(=O)c2c(SCCOC(=O)Nc3cccc(Cl)c3)sc(C#N)c2C1 | < 30 |
| CC(=O)C(C#N)c1nc(-c2ccc(F)cc2)cs1 (stereo unspecified) | 70 |
| CCNC(=O)C(Cc1ccccc1)NC(=O)OC(C)(C)C (stereo unspecified) | 30 |
| CN(C)C=O.O=C(Nc1nnc(Sc2ccnc3cc(Cl)ccc23)s1)c1sc2ccccc2c1Cl | 80 |
| COc1ccc2c(c1)CCC1SC(NC(=O)c3ccco3)=NC21 (stereo unspecified) | < 30 |
| O=C1CC2Sc3ccccc3N=C2N1Cc1ccccn1 (stereo unspecified) | < 30 |
| CSc1nnc(CN2C(=O)CSc3ccc(C(F)(F)F)cc32)n1C | < 30 |
| O=C(Nc1ccc(CN2CCS(=O)(=O)CC2)cc1)c1ccc(C(F)(F)F)cc1 | 40 |
| Cc1onc(-c2c(Cl)cccc2Cl)c1C(=O)OCCOc1ccc(C(F)(F)F)cc1[N+](=O)[O-] | 60 |
| N#CC(C#N)=CNc1cc(C(F)(F)F)ccc1N1CCCC1 | 40 |
| Cc1onc(-c2ccccc2Cl)c1C(=O)Nc1cccc2cccnc12 | 60 |
| COC(=O)c1scc(S(=O)(=O)C(C)C)c1N/N=C(\C#N)C(=O)c1ccccc1 | < 30 |
| N#Cc1ccc2c(c1)Sc1ccccc1N2 | 60 |
| Cc1cc(C)cc(N/C=C(\C#N)S(=O)(=O)c2ccc(Cl)cc2)c1 | < 30 |

| SMILES | inhibition [%] |
| --- | --- |
| N=C(NC(=O)c1cccc(Cn2cc(C(F)(F)F)ccc2=O)c1)c1ccc(Cl)cc1 | 40 |
| CCCCCCCCOc1ccc(S)nn1 | < 30 |
| O=C(c1sc2ccccc2c1Cl)N1CCc2ccccc2C1 | 70 |
| CC(=O)/C(C#N)=C/c1ccco1 | < 30 |
| CC(=O)N1N=C(c2ccccc2O)CC1c1ccc(Cl)cc1Cl (stereo unspecified) | < 30 |
| CC(C)(C)c1cc2nc(C(F)(F)F)cc(N3CCN(S(=O)(=O)c4ccccc4)CC3)n2n1 | < 30 |
| CSc1nccc(-c2ccc(S(=O)(=O)n3nc(C)c(Br)c3C)s2)n1 | < 30 |
| O=C(c1cccs1)N1CCCN(Cc2cccc3ccccc23)CC1 | 80 |
| Cc1ccc(C(=O)/C=C/C(=O)O)c(C)c1F | 60 |
| O=C(NC(=O)c1c(Cl)cccc1Cl)Nc1nc2cc(Cl)ccc2s1 | 50 |
| COc1ccccc1C1CCN(S(=O)(=O)c2ccc(C(C)C)cc2)CC1 | 80 |
| CC12CCC(C(=O)N3CCSCC3)(OC1=O)C2(C)C (stereo unspecified) | < 30 |
| COc1ccccc1NC(=O)Nc1nn(C)c2cccc(N(C)C)c12 | 60 |
| N#CC1=C(N)Oc2c3c(c4ccccc4c2C1c1ccc(C(F)(F)F)cc1)C(c1ccc(C(F)(F)F)cc1)C(C#N)=C(N)O3 (stereo unspecified) | < 30 |
| CCOC(=O)c1nn(-c2cccc(Cl)c2)cc(Sc2ccc(Cl)cc2)c1=O | 40 |
| CC(C)Cc1ccc(C(C)c2nnc(-c3cccc([N+](=O)[O-])c3)o2)cc1 (stereo unspecified) | 50 |
| Cc1cc(-c2nnc(C(F)(F)F)o2)ccc1NC(=S)Nc1ccc(Cl)cc1Cl | 70 |
| Fc1ccc(CN2CCN(Cc3c[nH]c4ccccc34)CC2)cc1 | 70 |
| COc1ccc2c(c1)CC/C(=C\c1ccc(Cl)cc1Cl)C2=O | 60 |
| Cc1csc2ncnc(N3CCN(S(=O)(=O)c4ccc(Cl)cc4)CC3)c12 | 70 |
| COc1ccc(S(=O)(=O)N2CCC(O)(c3ccc(Cl)cc3)CC2)cc1OC | 40 |

| SMILES | inhibition [%] |
| --- | --- |
| CO[C@@H]1O[C@@H]2CO[C@H](COC(C)=O)[C@]3(OC(C)=O)CO[C@H](OC2[C@H](OC(C)=O)[C@H]1OC(C)=O)[C@@H](OC(C)=O)[C@@H]3OC(C)=O (stereo partly specified) | 40 |
| C/C=C(\C)C(=O)Nc1nncs1 | < 30 |
| CC(C)(C)c1ccc(N2C(=N)SCC2=O)cc1 | 40 |
| O=C(CSC1CN(C(c2ccccc2)c2ccccc2)C1)N/N=C/c1ccncc1 | 50 |
| Cc1cc(SCc2nnc(-c3ccc([N+](=O)[O-])c(C)c3)o2)c(C)cc1Cl | 80 |
| O=S(=O)(CCN1CCC(n2cccc2)CC1)c1ccc(F)cc1 | 40 |
| CCOC(=O)c1c(C)n(-c2ccccc2)c2ccc(OC(=O)C(c3ccccc3)C3CCCC3)cc12 (stereo unspecified) | 30 |
| c1ccc2c(CN3CCN(Cc4ccc5c(c4)OCO5)CC3)c[nH]c2c1 | 60 |
| Clc1ccc(-c2noc(-c3sccc3Cl)n2)cc1 | 60 |
| Cc1csc(NC(=O)C(F)(F)F)c1C(N)=O | 50 |
| CSC1=N/C(=C\c2ccccc2O)C(=O)N1Cc1ccco1 | < 30 |
| N#C/C(=N\Nc1ccc(Cl)c(Cl)c1)C(=O)C1CC1 | 40 |
| N#Cc1ccc(NS(=O)(=O)c2ccc3ccccc3c2)cc1 | 40 |
| O=C(Nc1ccc(F)cc1F)c1cc(Cl)cc(Cl)c1O | < 30 |
| CCCC1c2ccsc2CCN1C(=S)Nc1ccc(Cl)cc1Cl (stereo unspecified) | 40 |
| O=C1CC(c2ccccc2)CC(=O)N1c1ccc(Oc2ccc(Cl)cc2)cc1 | < 30 |
| Cc1ccccc1NC(=O)NCc1cccs1 | 60 |
| CC1(C)C=Cc2ccc(OCC(=O)Nc3ccccc3)cc2O1 | 30 |

From ChEMBL document CHEMBL3727350, “Agents and methods for treating ischemic and other diseases” (2014)
